Some test systems named below: SF-539; SK-MEL-5; U-251; OVCAR-5; MDA-MB-231; KM12; NCI-H23; M14; SN12C; HT-29; NCI/ADR-RES; 786-0; HL-60; UO-31; PC-3; A498; RPMI-8226; Malme-3M; CCRF-CEM; Hs-578T.
Common to all, as to assay: NCI-60 cell line screen, 48 h

Values joined by “and” are separate entries in the source; they are usually repeats but may differ in a detail not shown here. Equal entries are not always repeated.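 Step 1: Grow cells in 96-well plates. Step 2: Expose to compound for 48 hours at 5 concentrations. Step 3: Interpolate endpoints linearly; if unreached, use highest concentration. Here, GI50 denotes the concentration required for 50% inhibition of growth.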 Active and inactive are the calls of the source. No stated cut-off is given here; in the data, active = GI50 up to about 1.1 µM and inactive = higher. Some results are limits rather than exact numbers.

Regarding `Cn1c2c(c3c(=O)[nH]ncc31)CCc1ccccc1-2`, the GI50 in the assay on SF-539 was 46.5 µM (inactive); in the assay on SK-MEL-5, 17.8 µM (inactive); in the assay on U-251, 33.5 µM (inactive); in the assay on OVCAR-5 it was 45.6 µM (inactive); in the assay with MDA-MB-231, 21.1 µM (inactive); in the assay with KM12, 23 µM (inactive). Moreover, the GI50 in the assay with NCI-H23 is 26.1 µM (inactive); with M14, 18.6 µM (inactive); with SN12C, 34.8 µM (inactive); with HT-29 it was 32.6 µM (inactive); with NCI/ADR-RES, 27.4 µM (inactive); with 786-0, 25.4 µM (inactive). The GI50 in the assay on HL-60 is 27 µM (inactive); in the assay on UO-31, 22.5 µM (inactive); in the assay on PC-3 it was 28.2 µM (inactive); in the assay with A498, 16.3 µM (inactive); in the assay on RPMI-8226 it was 25.5 µM (inactive); in the assay with Malme-3M, 31.3 µM (inactive). For the same compound, the GI50 was 20.8 µM (inactive) with CCRF-CEM and 10.2 µM (inactive) in the assay on Hs-578T.

Take `Cc1ccc(/C=C2/N/C(=N\N=C/C(O)C(O)C(O)CO)NC2=O)cc1` (stereo not drawn): the GI50 in the assay on SF-539, in the assay on SK-MEL-5, in the assay with U-251, with OVCAR-5, in the assay with MDA-MB-231 and in the assay on KM12 was > 100 µM (inactive) throughout. The GI50 with NCI-H23 was > 10 µM (inactive); in the assay on M14 it was > 100 µM (inactive); in the assay on SN12C it was > 100 µM (inactive); with HT-29, > 100 µM (inactive); with NCI/ADR-RES it was > 100 µM (inactive); in the assay on 786-0 it was > 100 µM (inactive). Also, the GI50 is 56.5 µM (inactive) and 56.4 µM (inactive) with HL-60; > 100 µM (inactive) in the assay with UO-31; > 100 µM (inactive) in the assay on PC-3; > 100 µM (inactive) in the assay on A498; > 100 µM (inactive) in the assay on RPMI-8226; > 100 µM (inactive) in the assay with Hs-578T.

As to `CC(=O)OC1[C@@H](OC(C)=O)CN(OCc2ccccc2)C[C@H]1OC(C)=O` (stereo partly drawn), the GI50 in the assay with SF-539, with SK-MEL-5, with U-251, in the assay on OVCAR-5, in the assay on MDA-MB-231 and in the assay on KM12 was > 100 µM (inactive) each time. The GI50 in the assay on NCI-H23, in the assay with M14, with SN12C, in the assay with HT-29, in the assay with NCI/ADR-RES and with 786-0 was > 100 µM (inactive) in each case. Besides, the GI50 with HL-60, in the assay on UO-31, in the assay on PC-3, with A498, in the assay on RPMI-8226 and with CCRF-CEM was > 100 µM (inactive) in each case. The GI50 in the assay on Hs-578T was > 100 µM (inactive).

`CC(C)(C)/C(O)=C\c1nc2cc(F)c(F)cc2[nH]c1=O`: the GI50 in the assay with SF-539 is > 100 µM (inactive); in the assay with SK-MEL-5 it was > 100 µM (inactive); with U-251 it was > 100 µM (inactive); with MDA-MB-231, 25.1 µM (inactive); in the assay with KM12, > 100 µM (inactive); in the assay on NCI-H23, > 100 µM (inactive). The GI50 in the assay with M14, in the assay with HT-29, in the assay with NCI/ADR-RES, with 786-0, in the assay with HL-60 and in the assay with UO-31 was > 100 µM (inactive) in each case. Further, the GI50 in the assay with PC-3, in the assay with A498, with CCRF-CEM and in the assay with Hs-578T was > 100 µM (inactive) throughout.

For `COc1cc2c(cc1OC)C1C=NC(C2)c2cc(OC)c(OC)cc21` (stereo not drawn), the GI50 with SF-539 is > 100 µM (inactive); in the assay on SK-MEL-5, 40.5 µM (inactive); in the assay on U-251, > 100 µM (inactive); with OVCAR-5 it was > 100 µM (inactive); in the assay with MDA-MB-231 it was > 100 µM (inactive); in the assay on KM12, > 100 µM (inactive). The GI50 in the assay with M14 is > 100 µM (inactive); with SN12C, > 100 µM (inactive); in the assay with HT-29, > 100 µM (inactive); in the assay on NCI/ADR-RES it was > 100 µM (inactive); in the assay on 786-0, > 100 µM (inactive); in the assay with HL-60, 50.7 µM (inactive). In addition, the GI50 is 60.1 µM (inactive) in the assay on UO-31; > 100 µM (inactive) with PC-3; > 100 µM (inactive) with A498; 60.3 µM (inactive) in the assay with RPMI-8226; > 100 µM (inactive) in the assay on Hs-578T.

`O=c1c2ncn(C3CC(O)C(CO)O3)c2nnn1Cc1ccccc1[N+](=O)[O-]` (stereo not drawn): the GI50 in the assay with SF-539, with SK-MEL-5, in the assay on U-251, with OVCAR-5, with MDA-MB-231 and in the assay with KM12 was > 100 µM (inactive) throughout. Besides, the GI50 with NCI-H23, with M14, with SN12C, in the assay on HT-29, in the assay with NCI/ADR-RES and with 786-0 was > 100 µM (inactive) throughout. For the same compound, the GI50 was 57.3 µM (inactive) in the assay with HL-60; > 100 µM (inactive) in the assay on UO-31; > 100 µM (inactive) with PC-3; > 100 µM (inactive) with A498; > 100 µM (inactive) with RPMI-8226; > 100 µM (inactive) in the assay with Malme-3M. Further, the GI50 in the assay with CCRF-CEM and in the assay with Hs-578T was > 100 µM (inactive) in each case.

As for `CC(=O)OI1NC(=O)c2ccccc21`, the GI50 in the assay with SK-MEL-5, in the assay on U-251, with OVCAR-5, in the assay on MDA-MB-231, in the assay on KM12 and with NCI-H23 was > 100 µM (inactive) throughout. The GI50 in the assay with M14, in the assay with SN12C, in the assay on HT-29, in the assay with NCI/ADR-RES, in the assay with 786-0 and in the assay with HL-60 was > 100 µM (inactive) each time. For the same compound, the GI50 with UO-31 is > 100 µM (inactive); with PC-3 it was > 100 µM (inactive); with A498 it was > 100 µM (inactive); with RPMI-8226 it was > 100 µM (inactive); in the assay on Malme-3M it was > 100 µM (inactive); with CCRF-CEM it was 76.7 µM (inactive). Besides, the GI50 in the assay on Hs-578T was > 100 µM (inactive).

Consider `CCOC(=O)C(Cl)(Cl)/S(=N\S(=O)(=O)c1ccccc1)NC(=O)c1ccccc1` (stereo not drawn), for which the GI50 in the assay on SF-539, with SK-MEL-5, in the assay on U-251, with OVCAR-5, in the assay on MDA-MB-231 and with KM12 was > 100 µM (inactive) in each case. Also, the GI50 in the assay on NCI-H23, in the assay with M14, in the assay on SN12C, in the assay on HT-29, with NCI/ADR-RES and in the assay on 786-0 was > 100 µM (inactive) each time. Also, the GI50 in the assay with HL-60 was 0.65 µM (active); in the assay on UO-31, > 100 µM (inactive); in the assay on PC-3, > 100 µM (inactive); in the assay with A498, > 100 µM (inactive); in the assay on RPMI-8226 it was > 100 µM (inactive); in the assay with Malme-3M, > 100 µM (inactive). In addition, the GI50 with CCRF-CEM and in the assay on Hs-578T was > 100 µM (inactive) in each case.

As to `O=C(CCCN1CCC(Nc2ccccc2)(c2nnnn2C2CCCCC2)CC1)c1ccc(F)cc1`, the GI50 with SF-539 is 2.25 µM (inactive); in the assay on SK-MEL-5 it was 1.64 µM (inactive); with U-251, 5.86 µM (inactive); in the assay on OVCAR-5, 7.23 µM (inactive); in the assay with MDA-MB-231 it was 8.65 µM (inactive); in the assay with KM12, 8.47 µM (inactive). The GI50 is 13.7 µM (inactive) with NCI-H23; 1.99 µM (inactive) in the assay with M14; 10.6 µM (inactive) in the assay on SN12C; 3.03 µM (inactive) in the assay on HT-29; 21 µM (inactive) in the assay with NCI/ADR-RES; 3.89 µM (inactive) in the assay on 786-0. Besides, the GI50 was 4.73 µM (inactive) in the assay with HL-60; 3.78 µM (inactive) in the assay with UO-31; 3.94 µM (inactive) in the assay with PC-3; > 10 µM (inactive) in the assay with A498; 3.48 µM (inactive) with RPMI-8226; 3.24 µM (inactive) with Malme-3M. The GI50 was 16.4 µM (inactive) with CCRF-CEM and 10.3 µM (inactive) with Hs-578T.

In the case of `c1ccc(CSSSCc2ccccc2)cc1` [DIBENZYL TRISULFIDE], the GI50 in the assay with SK-MEL-5 is 1.88 µM (inactive); in the assay on U-251, 2.01 µM (inactive); with OVCAR-5, 3.62 µM (inactive); in the assay with MDA-MB-231 it was 2.48 µM (inactive); in the assay with KM12 it was 2.67 µM (inactive); in the assay with NCI-H23 it was 2.4 µM (inactive). The GI50 in the assay with M14 is 2.27 µM (inactive); in the assay on SN12C, 0.912 µM (active); in the assay on HT-29, 1 µM (active); in the assay on NCI/ADR-RES, 1.86 µM (inactive); with 786-0, 0.463 µM (active); in the assay on HL-60, 0.378 µM (active). The GI50 is 6.55 µM (inactive) in the assay on UO-31; 1.32 µM (inactive) with PC-3; 18.6 µM (inactive) with A498; 0.313 µM (active) with RPMI-8226; 7.36 µM (inactive) in the assay with Malme-3M; 0.0269 µM (active) in the assay on CCRF-CEM. The GI50 in the assay on Hs-578T was 8.32 µM (inactive).

These data come from ChEMBL document CHEMBL1201862, “PubChem BioAssay data set” (2004).
